The record followed here is US20250367348A1, “3D PRINTING OF 3-LAYERED RETINA AND CHOROID TISSUE” (Ramot at Tel-Aviv University Ltd., priority 2023, published 2025).

The test system of data set [1] is engineered RPE layer (blood vessel-RPE construct). The data set can be described thus: Calcium imaging (Fluo-4-AM) after ATP addition. The class given is cell-based. The conditions noted are these: 100 μM ATP added to medium; followed by slow decrease to baseline. On the procedure: Calcium imaging: Fluo-4-AM was prepared by adding 45 μL DMSO and 45 μL Pluronic-DMSO to a 50 μg vial of Fluo-4-AM.Fluo-4-AM was diluted with HBSS in a ratio of 1:50 and the cells were incubated for 1 hour in 37° C. The cells were washed for 30 minutes in HBSS in 37° C. The sample was placed in an inverted microscope on a heating plate adjusted to 37° C. Fluo-4-AM emission is at 506 nm and excitation is at 494 nm. Images were acquired at a rate of 3.15 Hz. 10 seconds After starting the recording 100 μM ATP were added to the medium. The data was analyzed using ImageJ. TEM: TEM Samples were fixated in 2.5% Glutaraldehyde in PBS over night at 4° C. After several washes in PBS, the samples were post fixed in 1% OsO4 in PBS for 2 h at 4° C. Dehydration was carried out in graded ethanol followed by embedding in Glycid ether. Thin sections were mounted on Formvar/Carbon coated grids, stained with uranyl acetate and lead citrate and examined in Jeol 1400-Plus transmission electron microscope (Jeol, Japan). Images were captured using SIS Megaview III and iTEM the Tem imaging platform (Olympus).SEM: Samples for SEM were fixed with 2.5% glutaraldehyde (24 h, at […]), followed by a graded incubation series in ethanol-water solutions (50-100% (v/v)). […]

The nature of data set [2]: Rheological shear thinning measurements of native and cross-linked ECM hydrogel. The note with it: 37° C. In kind it is physicochemical. The protocol: Rheological Properties: Rheological measurements were taken using Discovery HR-3 hybrid Rheometer (TA Instruments, DE) with 20 mm diameter parallel plate geometry with a Peltier plate to maintain the sample temperature. The samples were loaded at a temperature of 4° C., which was then raised to 37° C. to induce gelation; during which the oscillatory moduli of samples were monitored at a fixed frequency of 1 Hz and a strain of 1%.
The mechanical properties of an exemplary native ECM-based hydrogel (derived from omentum) and of cross-linked hydrogels were assessed by rheological measurements. Shear thinning measurements were conducted at 37° C. Data are presented as mean±SD, n=3. P-values were calculated using a Comparison of Fits test with an Extra Sum of Squares F-test.

A short description of data set [3]: Compressive (bulk) modulus of hydrogel. In kind it is physicochemical. The note with it: compression at 100 μm s^−1; n=3. On the procedure:
The compressive modulus measurements were performed using a Discovery HR-3 Hybrid Rheometer (TA Instruments, DE) with a 20 mm diameter parallel plate geometry and a Peltier plate to maintain the sample temperature. Bulk modulus tests were performed by compressing the samples at a fixed rate of 100 μm s^−1.
Alongside the rheological testing, the bulk mechanical properties of the hydrogel were also assessed. Samples were compressed, and the linear elastic modulus was calculated. Data are presented as mean±SD, n=3.

The nature of data set [4]: High-resolution imaging of hydrogel fiber morphology and pore size. In kind it is physicochemical. On the procedure: Data in FIG. 7I is presented as mean±SD, n=3, and each image had at least 180 pores whose area was determined using ImageJ.

For the compound `Nc1ncnc2c1ncn2[C@@H]1O[C@H](COP(=O)(O)OP(=O)(O)OP(=O)(O)O)[C@@H](O)[C@H]1O` [ATP, adenosine triphosphate], in data set [1], the intracellular calcium levels result is on record as “immediately increased intracellular calcium levels in a significant manner”.

Oxidized sucrose [SOx]: the “change in gel viscosity” value was “smaller increase” in data set [2] (increasing SOx concentration to 0.07%) and “large increase” in data set [2] (sample cross-linked with 0.03% SOx vs control gel). For the same compound, in data set [3], the “hydrogel bulk (linear elastic) modulus with and without exposure to SOx” value is “significant reinforcement”. In addition, the “internal fiber morphology of ECM hydrogel after reinforcement” value in data set [4] (before vs after exposure to SOx) was “without altering the internal morphology”. For the same compound, in data set [4] (n=3, at least 180 pores per image), the “pore size (holes in the mesh) before and after crosslinking” value was “no difference was observed”.
